Laboratory results taken from PMC10946813, “Lipophilicity Modulations by Fluorination Correlate with Membrane Partitioning” (Angewandte Chemie (International Ed. in English), 2023).
Several values for one entry are separate records, joined by “and”; a condition that tells them apart may be missing. Equal values may be shown once. Each block holds one compound with its values, some of them ahead of it.

Tests used:
[1] = Molar membrane partition coefficient (logKp) by 19F MAS solid-state NMR in lipid vesicles; assay type: physicochemical; conditions: for Molar Partition Coefficient (logKP): POPC; for logKp Measured as single compound (3.30 mol%): Table 1; for logKp Measured as single compound (3.30 mol%) / logKp Measured as equimolar mixture: POPC bilayers hydrated at 20 % w/v; for increase in logKp: equimolar mixture of 9 and 10 at 3.3 mol % versus compound alone
Description: The principle of the method is explained in Figure 2 (with a detailed description of the protocol provided in Supporting Information). The method utilizes ^19F MAS NMR to quantitate the partitioning of the fluorinated compounds between the aqueous and membrane phases. […] Experimentally, it was determined that only moderate spinning speeds (10 kHz) and low power decoupling (10 kHz decoupling field) were required to obtain well resolved spectra, even at these high magnetic fields; with motional processes within the liquid crystalline lipid bilayer averaging the potentially large chemical shielding anisotropy and dipolar couplings experienced by the fluorine spins. The application of low spinning speeds and radiofrequency decoupling fields also reduces sample heating, whilst minimising the pelleting of the vesicles against the rotor wall. The absence of any discernable sidebands, resulting from incomplete averaging, simplifies the analysis, as this precludes the need to integrate the entire family of sidebands.
With knowledge of the number of water ( nW ) and lipid ( nM ) molecules, the molar partition coefficient ( KP) is readily determined.
To determine how the concentration of the compound and bilayer hydration influenced the measured logK P, a systematic study of these parameters was undertaken for compound 10 (Figure S2, Table S1). Samples were prepared where the lipids were hydrated at levels between 10 to 30 %(w/v), a range widely used to study the physical properties of lipid bilayers. […] On the basis of the reproducibility of these figures, all subsequent experiments were conducted at 20 % (w/v) hydration with a compound/lipid ratio of 0.033. In addition to providing excellent reproducibility, these concentrations afforded good signal to noise ratios with sensible spectral acquisition times. […]
(§1) to the r.f. field strength then care should be taken to ensure that the two compounds are similarly excitated. Quantitative data also requires the complete relaxation of the nuclei between scans. For the studies reported here, saturation recovery measurements were performed on each system, with spectra then acquired with a recycle delay of five times T1. It […]
(§2) shorter T1 values than that of the substrate in aqueous solution, mirroring the observation […]
(§3) In addition to more general NMR considerations, care must also be exercised to ensure that the signal intensity, particularly that of the membrane bound state, is not influenced by anisotropic interactions that may be present. Due to the molecular dynamics within the lipid bilayer, many of these interactions are already motionally averaged facilitating their removal.
(§4) The application of low-power (10 kHz) SPINAL-64 decoupling[2] is sufficient to remove the weak scalar and dipolar couplings that are present within the fluid lipid bilayer. Care was taken […]
(§5) linebroadening due to temperature dependent changes in chemical shift. Similarly, data was acquired with both 5 and 10 kHz MAS and no change in isotropic chemical shift was observed […]
(§6) However, increasing the spinning speed from 5 to 10 kHz ensured complete averaging the residual chemical shielding anisotropy and other anisotropic contrbutions to the spectra and the presence of a single isotropic resonance for each population. The absence of any discernable sidebands in spectra acquired at 10 kHz allows the accurate integration of the signal intensity without the need to integrate the entire family of sidebands which would be required for a quantitative analysis.
(§7) Care should be taken when extending this to other compounds where the anisotropy may larger, either due to a larger chemical shielding anisotropy at the fluorine site studied or the application of higher magnetic as this would complicate the signal integration.
Prior to Fourier Transform, data was processed with 1Hz exponential line broadening and zero filled with 16384 points. The resulting spectra was phased and base line corrected. All processing was performed in Matlab using matNMR[5]. […]

[2] = Molar membrane partition coefficient (logKp) by 19F MAS NMR in POPC/cholesterol bilayers; assay type: physicochemical; conditions: for Molar Partition Coefficient (logKP): Table S3, POPC, 20% (w/v), substrate 3.3 mol%; for fall in logKP: increasing cholesterol up to 50 mol % versus pure POPC membranes
Source text: A major advantage of the method presented here compared to logP determination is that it can be applied to membranes of arbitrary complexity, enabling the analysis of the influence of such properties as headgroup size/charge and chain length/saturation. […] As an example of this kind of investigation, a mixed lipid system was employed. In particular, we investigated how increasing concentrations of cholesterol, a commonly found sterol in eukaryotic cell membranes, influenced the membrane partitioning of 9 and 10 (Figure 5, Table S3). […] The fall in logK P mirrors earlier studies where a reduction in membrane partitioning for small molecules has been observed.[19] This reduction has been attributed to the […] of the acyl chain packing and their favourable interactions with the cholesterol.[20] […]
as §1, §2, §3, §4, §5, §6, §7
Prior to Fourier Transform, data was processed with 1Hz exponential line broadening and zero filled with 16384 points. The resulting spectra was phased and base line corrected. All processing was performed in Matlab using matNMR[5]. The subsequent resonances where fitted to Lorentzian peaks using custom scripts in Matlab which are available from the authors.
1.4 Calculation of the molar membrane partition coefficients
In the slow exchange limit the molar partition coefficient can then be calculated as:
K = n",$/n$ = C",$/’(’)*.n% = I",$ . n%
Where C",+ and C",$ are the concentrations of the substrate in the membrane and aqueous phases respectively and n", n$ and n% are the number of substrate, lipid and water molecules respectively. The ratio C",$/’(’)*/C",%/’(’)* can be determined directly from the ratio of the integrals from the signals arising from the lipidic and aqueous phases (See Figure 2, main paper), whilst the ratio of n%/n$ represents the ratio of water to lipid molecules in the membrane, the degree of hydration.
2 Influence of exchange between the membrane and aqueous phase on 19F MAS-NMR Lineshape (Figure S1)
The influence of chemical exchange is well characterised in the liquid state, however […]

[3] = Octanol-water partition coefficient (logP OW), 19F NMR method with reference compound
[4] = Table S2, one 19F resonance evaluated
[5] = Table S2, glycosides, first listed 19F resonance
[6] = Table S2, glycosides, second listed 19F resonance
[7] = individual experiment (octanol/water), one of triplicate
[8] = octanol/water, Average logP, triplicate
[9] = octanol/water, Error (mean logP with standard deviation), triplicate, three decimals

Molar Partition Coefficient (logKP) [1, 4]: 1.68 ± 0.08
Structure (SMILES): OCCC(F)CCO [compound 11]

logKp Measured as single compound (3.30 mol%) [1]: 2.01±0.02
Molar Partition Coefficient (logKP) [1, 4]: 2.01 ± 0.02
Molar Partition Coefficient (logKP) ([1]; Table S3, membrane cholesterol 0 mol %, 20% (w/v), substrate 3.3 mol%): 2.01 ± 0.02
increase in logKp [1]: 0.2 units
logKp Measured as equimolar mixture ([1]; mixture 9+10, 1.65 mol% each): 1.99±0.09
logKp Measured as equimolar mixture ([1]; mixture 9+10, 3.30 mol% each): 2.18±0.07
Molar Partition Coefficient (logKP) ([2]; membrane cholesterol 25 mol %): 1.87 ± 0.03
Molar Partition Coefficient (logKP) ([2]; membrane cholesterol 50 mol %): 1.77 ± 0.02
fall in logKP [2]: 0.24
Structure (SMILES): OCCCC(F)(F)CO [compound 9]

Molar Partition Coefficient (logKP) [1, 5]: 1.80 ± 0.05
Molar Partition Coefficient (logKP) [1, 6]: 1.87 ± 0.14
logP [3, 7]: -0.905 and -0.898
logP [3, 8]: -0.9
logP [3, 9]: -0.902
Structure (SMILES): CO[C@H]1O[C@H](CF)[C@H](F)[C@H](O)[C@H]1O [compound 7, methyl 4,6-dideoxy-4,6-difluoro-α-D-galactopyranoside]

Molar Partition Coefficient (logKP) [1, 4]: 1.82 ± 0.06
Structure (SMILES): OC[C@H](F)C[C@@H](F)CO (single isomer, unassigned) [ent-15]

Molar Partition Coefficient (logKP) [1, 4]: 1.71 ± 0.10
Structure (SMILES): OC[C@@H](F)C[C@@H](F)CO [compound 16]

Molar Partition Coefficient (logKP) [1, 4]: 2.54 ± 0.08
Structure (SMILES): OCC1CC1(F)F (stereo not drawn) [compound 1]

Molar Partition Coefficient (logKP) [1, 5]: 1.69 ± 0.00
Molar Partition Coefficient (logKP) [1, 6]: 1.64 ± 0.06
logP [3, 7]: -1.257 and -1.242 and -1.253
logP [3, 8]: -1.25
logP [3, 9]: -1.25
Structure (SMILES): CO[C@@H]1O[C@H](CF)[C@H](F)[C@H](O)[C@H]1O [compound 8, methyl 4,6-dideoxy-4,6-difluoro-β-D-galactopyranoside]

logKp Measured as single compound (3.30 mol%) [1]: 1.83±0.04 and 1.83±0.11
logKP ([1]; Table S1, hydration 10 % w/v, substrate/lipid 0.010 mole/mole): 1.73
logKP ([1]; Table S1, hydration 10 % w/v, substrate/lipid 0.033 mole/mole): 1.91
logKP ([1]; Table S1, hydration 10 % w/v, substrate/lipid 0.100 mole/mole): 1.81
logKP ([1]; Table S1, hydration 20 % w/v, substrate/lipid 0.010 mole/mole): 1.97
logKP ([1]; Table S1, hydration 20 % w/v, substrate/lipid 0.033 mole/mole, mean value (n=3)): 1.83
logKP ([1]; Table S1, hydration 20 % w/v, substrate/lipid 0.100 mole/mole): 1.95
logKP ([1]; Table S1, hydration 30 % w/v, substrate/lipid 0.010 mole/mole): 1.81
logKP ([1]; Table S1, hydration 30 % w/v, substrate/lipid 0.033 mole/mole): 1.69
logKP ([1]; Table S1, hydration 30 % w/v, substrate/lipid 0.100 mole/mole): 1.85
logKP, Mean ([1]; Table S1, mean over all hydrations (10-30 % w/v) and substrate/lipid ratios (0.010-0.100)): 1.85
Molar Partition Coefficient (logKP) [1, 4]: 1.83 ± 0.04
mean logKP ([1]; compound concentration 1 to 10 mol % (with respect to total lipid), mean across all levels of hydration): 1.85±0.02
increase in logKp [1]: 0.2 units
mean logKP ([1]; lipids hydrated at 10 to 30 %(w/v), mean across the range of compound concentrations studied): 1.85±0.06
logKp Measured as equimolar mixture ([1]; mixture 9+10, 1.65 mol% each): 1.84±0.01
logKp Measured as equimolar mixture ([1]; mixture 9+10, 3.30 mol% each): 2.01±0.04
logKp Measured as equimolar mixture ([1]; mixture 10+13, 3.30 mol% each): 1.88±0.11
Kp at 0.01 mole/mole substrate/lipid ([1]; multilamellar POPC vesicles, Table S1, hydration 10 % w/v, substrate/lipid 0.010 mole/mole): 53.4
Kp at 0.033 mole/mole substrate/lipid ([1]; multilamellar POPC vesicles, Table S1, hydration 10 % w/v, substrate/lipid 0.033 mole/mole): 81.8
Kp at 0.1 mole/mole substrate/lipid ([1]; multilamellar POPC vesicles, Table S1, hydration 10 % w/v, substrate/lipid 0.100 mole/mole): 64.5
Kp at 0.01 mole/mole substrate/lipid ([1]; multilamellar POPC vesicles, Table S1, hydration 20 % w/v, substrate/lipid 0.010 mole/mole): 93.9
Kp at 0.033 mole/mole substrate/lipid ([1]; multilamellar POPC vesicles, Table S1, hydration 20 % w/v, substrate/lipid 0.033 mole/mole): 67.6
Kp at 0.1 mole/mole substrate/lipid ([1]; multilamellar POPC vesicles, Table S1, hydration 20 % w/v, substrate/lipid 0.100 mole/mole): 89.4
Kp at 0.01 mole/mole substrate/lipid ([1]; multilamellar POPC vesicles, Table S1, hydration 30 % w/v, substrate/lipid 0.010 mole/mole): 65.3
Kp at 0.033 mole/mole substrate/lipid ([1]; multilamellar POPC vesicles, Table S1, hydration 30 % w/v, substrate/lipid 0.033 mole/mole): 49.2
Kp at 0.1 mole/mole substrate/lipid ([1]; multilamellar POPC vesicles, Table S1, hydration 30 % w/v, substrate/lipid 0.100 mole/mole): 70.7
Kp ([1]; multilamellar POPC vesicles, Table S1, mean over all hydrations (10-30 % w/v) and substrate/lipid ratios (0.010-0.100)): 71.6
Molar Partition Coefficient (logKP) ([2]; membrane cholesterol 25 mol %): 1.74 ± 0.02
Molar Partition Coefficient (logKP) ([2]; membrane cholesterol 50 mol %): 1.68 ± 0.05
fall in logKP [2]: 0.17
Structure (SMILES): OCCC(F)(F)CCO [compound 10]

Molar Partition Coefficient (logKP) [1, 4]: 2.02 ± 0.04
Structure (SMILES): OC[C@@H]1C[C@@H]1F [compound 4]

Molar Partition Coefficient (logKP) [1, 4]: 2.08 ± 0.01
Structure (SMILES): OCC1(F)CC1 [compound 3]

Molar Partition Coefficient (logKP) [1, 4]: 1.85 ± 0.10
Structure (SMILES): OC[C@@H](F)C[C@H](F)CO [compound 15]

Molar Partition Coefficient (logKP) [1, 5]: 1.98 ± 0.02
Molar Partition Coefficient (logKP) [1, 6]: 1.98 ± 0.03
logP [3, 7]: -0.698 and -0.708 and -0.717
logP [3, 8]: -0.71
logP [3, 9]: -0.707
Structure (SMILES): CO[C@H]1O[C@H](CF)[C@@H](F)[C@H](O)[C@H]1O [compound 5]

Molar Partition Coefficient (logKP) [1, 4]: 2.17 ± 0.05
Structure (SMILES): OC[C@H]1C[C@@H]1F [compound 2]

logKp Measured as single compound (3.30 mol%) [1]: 2.40±0.07
Molar Partition Coefficient (logKP) [1, 4]: 2.40 ± 0.07
logKp Measured as equimolar mixture ([1]; mixture 10+13, 3.30 mol% each): 2.50±0.10
Structure (SMILES): OCC(F)(F)CC(F)(F)CO [compound 13]

Molar Partition Coefficient (logKP) [1, 5]: 1.93 ± 0.16
Molar Partition Coefficient (logKP) [1, 6]: 1.95 ± 0.15
logP [3, 7]: -1.036 and -1.054 and -1.053
logP [3, 8]: -1.05
logP [3, 9]: -1.05
Structure (SMILES): CO[C@@H]1O[C@H](CF)[C@@H](F)[C@H](O)[C@H]1O [compound 6]

Molar Partition Coefficient (logKP) [1, 4]: 2.01 ± 0.01
Structure (SMILES): OCC(F)CC(F)(F)CO (stereo not drawn) [compound 14]
